Data as given in patent US10336739B2, “4-hydroxy-3-(heteroaryl)pyridine-2-one APJ agonists” (BRISTOL-MYERS SQUIBB COMPANY, priority 2015, dated 2019).

target: human APJ receptor (Homo sapiens (Human), UniProt P35414); assay: Intracellular cAMP accumulation assay (APJ hcAMP, HTRF); format: cell-based; settings: HEK293 cells stably expressing human APJ receptor; inhibition of forskolin-mediated cAMP production; read-out: hAPJ cAMP EC50 Potency range
Procedure, shortened: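 HEK293 cells stably expressing human APJ, 5,000 per well, exposed to compound with […] IBMX and 2 μM forskolin for 30 minutes at room temperature. cAMP measured by HTRF after lysis and 60 min detection incubation. EC50 from sigmoidal variable-slope fits of inhibition of forskolin-induced cAMP, quantified against a cAMP standard curve.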

Chain of human APJ receptor (P35414 whole entry): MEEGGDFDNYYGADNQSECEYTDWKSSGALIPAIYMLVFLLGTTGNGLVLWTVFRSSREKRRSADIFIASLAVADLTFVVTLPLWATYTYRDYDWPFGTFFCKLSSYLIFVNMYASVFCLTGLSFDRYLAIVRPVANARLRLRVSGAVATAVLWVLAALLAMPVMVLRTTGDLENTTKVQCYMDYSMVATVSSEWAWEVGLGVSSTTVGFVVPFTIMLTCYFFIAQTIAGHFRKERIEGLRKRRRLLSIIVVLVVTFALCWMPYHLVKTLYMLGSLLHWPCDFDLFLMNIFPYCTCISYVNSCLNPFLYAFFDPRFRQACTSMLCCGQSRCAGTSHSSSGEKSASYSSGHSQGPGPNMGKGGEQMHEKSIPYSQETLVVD

Compound | EC50
CCOCc1nc(O)c(-c2nnc(Cc3ccc(Cl)cc3)o2)c(O)c1-c1c(OC)cccc1OC [Example 90, 3-{5-[(4-chlorophenyl)methyl]-1,3,4-oxadiazol-2-yl}-5-(2,6-dimethoxyphenyl)-6-(ethoxymethyl) pyridine-2,4-diol] | 0.01 to 10 nM
CCCCc1nc(O)c(-c2nnc(Cc3nc(-c4ccccc4)oc3C)o2)c(O)c1-c1c(OC)cccc1OC [Example 91, 6-butyl-5-(2,6-dimethoxyphenyl)-3-{5-[(5-methyl-2-phenyl-1,3-oxazol-4-yl)methyl]-1,3,4-oxadiazol-2-yl}pyridine-2,4-diol] | 0.01 to 10 nM
COc1cccc(OC)c1-c1c(C2CC2)nc(O)c(-c2nnc(Cc3noc4ccccc34)o2)c1O [Example 92, 3-[5-(1,2-benzoxazol-3-ylmethyl)-1,3,4-oxadiazol-2-yl]-6-cyclopropyl-5-(2,6-dimethoxyphenyl) pyridine-2,4-diol] | 10 to 100 nM
COc1cccc(OC)c1-c1c(C2CC2)[nH]c(=O)c(-c2nnc(Cc3ccc(Cl)cc3)o2)c1O [Example 93, 3-{5-[(4-chlorophenyl)methyl]-1,3,4-oxadiazol-2-yl}-6-cyclopropyl-5-(2,6-dimethoxyphenyl) pyridine-2,4-diol] | 10 to 100 nM
COc1cccc(OC)c1-c1c(C2CC2)nc(O)c(-c2nnc(Cc3csc(C)n3)o2)c1O [Example 94, 6-cyclopropyl-5-(2,6-dimethoxyphenyl) 3-{5-[(2-methyl-1,3-thiazol-4-yl)methyl]-1,3,4-oxadiazol-2-yl}pyridine-2,4-diol] | 10 to 100 nM
COc1cccc(OC)c1-c1c(C2CC2)nc(O)c(-c2nnc(Cc3nc(-c4ccccn4)no3)o2)c1O [Example 95, 6-cyclopropyl-5-(2,6-dimethoxyphenyl)-3-(5-{[3-(pyridin-2-yl)-1,2,4-oxadiazol-5-yl]methyl}-1,3,4-oxadiazol-2-yl)pyridine-2,4-diol] | 0.01 to 10 nM
CCCCc1nc(O)c(-c2nnc(Cc3cccc(F)c3)o2)c(O)c1-c1c(OC)cccc1OC [Example 99, 6-butyl-5-(2,6-dimethoxyphenyl)-3-{5-[(3-fluorophenyl)methyl]-1,3,4-oxadiazol-2-yl}pyridine-2,4-diol] | 0.01 to 10 nM
CCCCc1nc(O)c(-c2nnc(Cc3nc(-c4cccnc4)no3)o2)c(O)c1-c1c(OC)cccc1OC [Example 101, 6-butyl-5-(2,6-dimethoxyphenyl)-3-(5-{[3-(pyridin-3-yl)-1,2,4-oxadiazol-5-yl]methyl}-1,3,4-oxadiazol-2-yl)pyridine-2,4-diol] | 0.01 to 10 nM
CCCCc1nc(O)c(-c2nnc(Cc3ccc(Cl)cc3F)o2)c(O)c1-c1c(OC)cccc1OC [Example 103, 6-butyl-3-{5-[(4-chloro-2-fluorophenyl)methyl]-1,3,4-oxadiazol-2-yl}-5-(2,6-dimethoxyphenyl) pyridine-2,4-diol] | 0.01 to 10 nM
CCCCc1nc(O)c(-c2nnc(Cc3nc(-c4ccncc4)no3)o2)c(O)c1-c1c(OC)cccc1OC [Example 104, 6-butyl-5-(2,6-dimethoxyphenyl)-3-(5-{[3-(pyridin-4-yl)-1,2,4-oxadiazol-5-yl]methyl}-1,3,4-oxadiazol-2-yl)pyridine-2,4-diol] | 0.01 to 10 nM
CCOCc1nc(O)c(-c2nnc(Cc3csc(C)n3)o2)c(O)c1-c1c(OC)cccc1OC [Example 106, 5-(2,6-dimethoxyphenyl)-6-(ethoxymethyl)-3-{5-[(2-methyl-1,3-thiazol-4-yl)methyl]-1,3,4-oxadiazol-2-yl}pyridine-2,4-diol] | 0.01 to 10 nM
CCOCc1nc(O)c(-c2nnc(Cc3noc(-c4ccccn4)n3)o2)c(O)c1-c1c(OC)cccc1OC [Example 107, 5-(2,6-dimethoxyphenyl)-6-(ethoxymethyl)-3-(5-{[5-(pyridin-2-yl)-1,2,4-oxadiazol-3-yl]methyl}-1,3,4-oxadiazol-2-yl)pyridine-2,4-diol] | 0.01 to 10 nM
CCCCc1nc(O)c(-c2nnc(Cc3nc(Cc4ccccc4)no3)o2)c(O)c1-c1c(OC)cccc1OC [Example 108, 3-{5-[(3-benzyl-1,2,4-oxadiazol-5-yl)methyl]-1,3,4-oxadiazol-2-yl}-6-butyl-5-(2,6-dimethoxyphenyl) pyridine-2,4-diol] | 0.01 to 10 nM
CCOCc1[nH]c(=O)c(-c2nnc(Cc3ccc(Cl)nc3)o2)c(O)c1-c1c(OC)cccc1OC [Example 110, 3-{5-[(6-chloropyridin-3-yl)methyl]-1,3,4-oxadiazol-2-yl}-5-(2,6-dimethoxyphenyl)-6-(ethoxymethyl) pyridine-2,4-diol] | 0.01 to 10 nM
CCCCc1nc(O)c(-c2nnc(Cc3nc(-c4ccccc4)no3)o2)c(O)c1-c1c(OC)cccc1OC [Example 111, 6-butyl-5-(2,6-dimethoxyphenyl)-3-{5-[(3-phenyl-1,2,4-oxadiazol-5-yl)methyl]-1,3,4-oxadiazol-2-yl}pyridine-2,4-diol] | 0.01 to 10 nM
CCOCc1nc(O)c(-c2nnc(Cn3ccccc3=O)o2)c(O)c1-c1c(OC)cccc1OC [Example 119, 1-({5-[5-(2,6-dimethoxyphenyl)-6-(ethoxymethyl)-2,4-dihydroxypyridin-3-yl]-1,3,4-oxadiazol-2-yl}methyl)-1,2-dihydropyridin-2-one] | 0.01 to 10 nM

Results, then the compound that gave them:

EC50 | Compound
10 to 100 nM | CCCCc1nc(O)c(-c2nnc(CC(=O)OCC)o2)c(O)c1-c1c(OC)cccc1OC [Example 96, ethyl 2-{5-[6-butyl-5-(2,6-dimethoxyphenyl)-2,4-dihydroxypyridin-3-yl]-1,3,4-oxadiazol-2-yl}acetate]
0.01 to 10 nM | CCCCc1nc(O)c(-c2nnc(CN3C(=O)CN(C)C3=O)o2)c(O)c1-c1c(OC)cccc1OC [Example 98, 3-({5-[6-butyl-5-(2,6-dimethoxyphenyl)-2,4-dihydroxypyridin-3-yl]-1,3,4-oxadiazol-2-yl}methyl)-1-methyl-imidazolidine-2,4-dione]
10 to 100 nM | CCCCc1nc(O)c(-c2nnc(CN3CCCCC3)o2)c(O)c1-c1c(OC)cccc1OC [Example 100, 6-butyl-5-(2,6-dimethoxyphenyl)-3-[5-(piperidin-1-ylmethyl)-1,3,4-oxadiazol-2-yl]pyridine-2,4-diol]
100 to 300 nM | CCCCc1nc(O)c(-c2nnc(Cc3cnn(C)c3)o2)c(O)c1-c1c(OC)cccc1OC [Example 102, 6-butyl-5-(2,6-dimethoxyphenyl)-3-{5-[(1-methyl-1H-pyrazol-4-yl)methyl]-1,3,4-oxadiazol-2-yl}pyridine-2,4-diol]
0.01 to 10 nM | CCCCc1nc(O)c(-c2nnc(CN3CCCC3=O)o2)c(O)c1-c1c(OC)cccc1OC [Example 105, 1-({5-[6-butyl-5-(2,6-dimethoxyphenyl)-2,4-dihydroxypyridin-3-yl]-1,3,4-oxadiazol-2-yl}methyl) pyrrolidin-2-one]
0.01 to 10 nM | CCCCc1nc(O)c(-c2nnc(Cc3nc(C4CC4)no3)o2)c(O)c1-c1c(OC)cccc1OC [Example 109, 6-butyl-3-{5-[(3-cyclopropyl-1,2,4-oxadiazol-5-yl)methyl]-1,3,4-oxadiazol-2-yl}-5-(2,6-dimethoxyphenyl) pyridine-2,4-diol]
0.01 to 10 nM | CCOCc1nc(O)c(-c2nnc(CN3CCCC3=O)o2)c(O)c1-c1c(OC)cccc1OC [Example 112, 1-({5-[5-(2,6-dimethoxyphenyl)-6-(ethoxymethyl)-2,4-dihydroxypyridin-3-yl]-1,3,4-oxadiazol-2-yl}methyl) pyrrolidin-2-one]
10 to 100 nM | CCCCc1nc(O)c(-c2nnc(CN3C(=O)CNC3=O)o2)c(O)c1-c1c(OC)cccc1OC [Example 113, 3-({5-[6-butyl-5-(2,6-dimethoxyphenyl)-2,4-dihydroxypyridin-3-yl]-1,3,4-oxadiazol-2-yl}methyl) imidazolidine-2,4-dione]
0.01 to 10 nM | CCCCc1nc(O)c(-c2nnc(Cn3ccccc3=O)o2)c(O)c1-c1c(OC)cccc1OC [Example 114, 1-({5-[6-butyl-5-(2,6-dimethoxyphenyl)-2,4-dihydroxypyridin-3-yl]-1,3,4-oxadiazol-2-yl}methyl)-1,2-dihydropyridin-2-one]
10 to 100 nM | CCCCc1nc(O)c(-c2nnc(Cn3ccnc3)o2)c(O)c1-c1c(OC)cccc1OC [Example 115, 6-butyl-5-(2,6-dimethoxyphenyl)-3-[5-(1H-imidazol-1-ylmethyl)-1,3,4-oxadiazol-2-yl]pyridine-2,4-diol]
0.01 to 10 nM | CCCCc1nc(O)c(-c2nnc(CN3CCOCC3=O)o2)c(O)c1-c1c(OC)cccc1OC [Example 117, 4-({5-[6-butyl-5-(2,6-dimethoxyphenyl)-2,4-dihydroxypyridin-3-yl]-1,3,4-oxadiazol-2-yl}methyl) morpholin-3-one]
0.01 to 10 nM | CCCCc1nc(O)c(-c2nnc(CC(=O)OC(C)(C)C)o2)c(O)c1-c1c(OC)cccc1OC [Example 118, tert-butyl 2-{5-[6-butyl-5-(2,6-dimethoxyphenyl)-2,4-dihydroxypyridin-3-yl]-1,3,4-oxadiazol-2-yl}acetate]
10 to 100 nM | CCCCc1nc(O)c(-c2nnc(CNC(=O)OC(C)(C)C)o2)c(O)c1-c1c(OC)cccc1OC [Example 120, tert-butyl N-({5-[6-butyl-5-(2,6-dimethoxyphenyl)-2,4-dihydroxypyridin-3-yl]-1,3,4-oxadiazol-2-yl}methyl) carbamate]

same assay, conditions: hAPJ cAMP EC50 Potency range (nM), HEK293 cells stably expressing human APJ receptor; inhibition of forskolin-mediated cAMP production

Compound | EC50
CCCCc1nc(O)c(-c2nnc(CN3CCOC3=O)o2)c(O)c1-c1c(OC)cccc1OC [Example 116, 3-({5-[6-butyl-5-(2,6-dimethoxyphenyl)-2,4-dihydroxypyridin-3-yl]-1,3,4-oxadiazol-2-yl}methyl)-1,3-oxazolidin-2-one] | 0.01 to 10 nM
CCCCc1nc(O)c(-c2nnc(CN(C)C(=O)OC(C)(C)C)o2)c(O)c1-c1c(OC)cccc1OC [Example 121, tert-butyl N-({5-[6-butyl-5-(2,6-dimethoxyphenyl)-2,4-dihydroxypyridin-3-yl]-1,3,4-oxadiazol-2-yl}methyl)-N-methylcarbamate] | 10 to 100 nM
